Test results as given in patent US20130303509A1, “NAMPT INHIBITORS” (AbbVie Inc., priority 2012, published 2013).

Test system: PC3 cells
Assay: NAMPT Cell Proliferation Assay
Format: cell-based
Settings: Homo sapiens, PC-3, 120 h, 5 days incubation, cell viability by Cell Titer Glo
Procedure, shortened: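 Five-day CellTiter-Glo viability readout in PC3 cells grown in RPMI/10% heat-inactivated FBS. Compounds added after overnight attachment as a 10-fold dilution series, […]. Percent inhibition fitted to sigmoidal dose-response to derive IC50.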

SMILES | IC50 [nM]
O=C(Nc1ccc(O[C@@H]2CCN(C(=O)Cc3ccc(F)cc3F)C2)cc1)C1CN(c2ccnnc2)C1 [Example 454, N-[4-({(3R)-1-[(2,4-difluorophenyl)acetyl]pyrrolidin-3-yl}oxy)phenyl]-1-(pyridazin-4-yl)azetidine-3-carboxamide] | 106
Cc1ccc(C)c(C(=O)N2CCC(c3ccc(NC(=O)C4CN(c5cccnn5)C4)cc3)CC2)c1 [Example 359, N-{4-[1-(2,5-dimethylbenzoyl)piperidin-4-yl]phenyl}-1-(pyridazin-3-yl)azetidine-3-carboxamide] | 1.77
Cc1ncccc1N1CC(C(=O)Nc2ccc(C3CCN(C(=O)C4CCCCC4)CC3)cc2)C1 [Example 196, N-{4-[1-(cyclohexylcarbonyl)piperidin-4-yl]phenyl}-1-(2-methylpyridin-3-yl)azetidine-3-carboxamide] | 111
O=C(Nc1ccc(C2CCN(C(=O)c3ccccc3F)CC2)cc1F)C1CN(c2ccnnc2)C1 [Example 868, N-{2-fluoro-4-[1-(2-fluorobenzoyl)piperidin-4-yl]phenyl}-1-(pyridazin-4-yl)azetidine-3-carboxamide] | 2.29
CCOCC(=O)N1CCC(c2ccc(NC(=O)C3CN(c4cccnn4)C3)cc2)CC1 [Example 432, N-{4-[1-(ethoxyacetyl)piperidin-4-yl]phenyl}-1-(pyridazin-3-yl)azetidine-3-carboxamide] | 8
O=C(Nc1ccc(O[C@@H]2CCN(C(=O)C(F)(F)c3ccccc3)C2)cc1)C1CN(c2ccnnc2)C1 [Example 480, N-[4-({(3R)-1-[difluoro(phenyl)acetyl]pyrrolidin-3-yl}oxy)phenyl]-1-(pyridazin-4-yl)azetidine-3-carboxamide] | 4.24
O=C(Nc1ccc(OC2CCN(C(=O)C3CCOC3)CC2)cc1)C1CN(c2cccnn2)C1 (centres unmarked) [Example 226, 1-(pyridazin-3-yl)-N-(4-{[1-(tetrahydrofuran-3-ylcarbonyl)piperidin-4-yl]oxy}phenyl)azetidine-3-carboxamide] | 8.89
CCC(C)(C)C(=O)N1CCC(c2ccc(NC(=O)C3CN(c4cccnc4C)C3)cc2)CC1 [Example 193, N-{4-[1-(2,2-dimethylbutanoyl)piperidin-4-yl]phenyl}-1-(2-methylpyridin-3-yl)azetidine-3-carboxamide] | 71
O=C(Nc1ccc(S(=O)(=O)C2CCN(C(=O)Cc3ccccc3)CC2)cc1)C1CN(c2cccnn2)C1 [Example 600, N-(4-{[1-(phenylacetyl)piperidin-4-yl]sulfonyl}phenyl)-1-(pyridazin-3-yl)azetidine-3-carboxamide] | 219
O=C(Nc1ccc(O[C@@H]2CCN(C(=O)c3ccc(C(F)(F)F)cc3)C2)cc1)C1CN(c2ccnnc2)C1 [Example 475, 1-(pyridazin-4-yl)-N-[4-({(3R)-1-[4-(trifluoromethyl)benzoyl]pyrrolidin-3-yl}oxy)phenyl]azetidine-3-carboxamide] | 594
O=C(Nc1ccc(C2CCN(C(=O)c3cccc4ccccc34)CC2)cc1)C1CN(c2cccnn2)C1 [Example 406, N-{4-[1-(naphthalen-1-ylcarbonyl)piperidin-4-yl]phenyl}-1-(pyridazin-3-yl)azetidine-3-carboxamide] | 7.42
Cc1cc(C)cc(CC(=O)N2CCC(c3ccc(NC(=O)[C@H]4CCN(c5cccnn5)C4)cc3)CC2)c1 [Example 683, (3S)-N-(4-{1-[(3,5-dimethylphenyl)acetyl]piperidin-4-yl}phenyl)-1-(pyridazin-3-yl)pyrrolidine-3-carboxamide] | 9.02
O=C(Nc1ccc(C2CCN(C(=O)c3ccccc3)CC2)cc1F)C1CN(c2cccnn2)C1 [Example 829, N-[4-(1-benzoylpiperidin-4-yl)-2-fluorophenyl]-1-(pyridazin-3-yl)azetidine-3-carboxamide] | 2.95
O=C(Nc1ccc(OC2CCN(C(=O)Cc3ccc(F)cc3)CC2)cc1)C1CN(c2cccnn2)C1 [Example 232, N-[4-({1-[(4-fluorophenyl)acetyl]piperidin-4-yl}oxy)phenyl]-1-(pyridazin-3-yl)azetidine-3-carboxamide] | 8.74
CCCCC(=O)N1CC(Oc2ccc(NC(=O)C3CN(c4ccnnc4)C3)cc2)C1 [Example 210, N-{4-[(1-pentanoylazetidin-3-yl)oxy]phenyl}-1-(pyridazin-4-yl)azetidine-3-carboxamide] | 62.7
O=C(Nc1ccc(O[C@@H]2CCN(C(=O)c3cc(F)cc(F)c3)C2)cc1)C1CN(c2cccnn2)C1 [Example 516, N-(4-{[(3R)-1-(3,5-difluorobenzoyl)pyrrolidin-3-yl]oxy}phenyl)-1-(pyridazin-3-yl)azetidine-3-carboxamide] | 2.26
CC(C)C(=O)N1CCC(c2ccc(NC(=O)C3CN(c4cccnc4)C3)cc2)CC1 [Example 30, N-{4-[1-(2-methylpropanoyl)piperidin-4-yl]phenyl}-1-(pyridin-3-yl)azetidine-3-carboxamide] | 1.97
Cc1ccc(C(=O)N2CCC(Oc3ccc(NC(=O)C4CN(c5ccnnc5)C4)cc3)CC2)s1 [Example 304, N-[4-({1-[(5-methylthiophen-2-yl)carbonyl]piperidin-4-yl}oxy)phenyl]-1-(pyridazin-4-yl)azetidine-3-carboxamide] | 33.2
O=C(Nc1ccc(O[C@@H]2CCN(C(=O)c3ccc(Cl)cc3)C2)cc1)C1CN(c2cccnn2)C1 [Example 507, N-(4-{[(3R)-1-(4-chlorobenzoyl)pyrrolidin-3-yl]oxy}phenyl)-1-(pyridazin-3-yl)azetidine-3-carboxamide] | 8.34
O=C(Nc1ccc(OC2CCN(C(=O)c3cc(F)cc(F)c3)CC2)cc1)C1CN(c2ccnnc2)C1 [Example 299, N-(4-{[1-(3,5-difluorobenzoyl)piperidin-4-yl]oxy}phenyl)-1-(pyridazin-4-yl)azetidine-3-carboxamide] | 84.6
O=C(Nc1ccc(C2CCN(C(=O)C3CCOC3)CC2)cc1)[C@H]1CCN(c2cccnn2)C1 (stereo partly drawn) [Example 638, (3S)-1-(pyridazin-3-yl)-N-{4-[1-(tetrahydrofuran-3-ylcarbonyl)piperidin-4-yl]phenyl}pyrrolidine-3-carboxamide] | 29.9
COCCOCC(=O)N1CCC(c2ccc(NC(=O)C3CN(c4cccnn4)C3)cc2)CC1 [Example 335, N-(4-{1-[(2-methoxyethoxy)acetyl]piperidin-4-yl}phenyl)-1-(pyridazin-3-yl)azetidine-3-carboxamide] | 6.07
CC(C)(C)Cn1cc(-c2ccc(NC(=O)C3CN(c4cccnn4)C3)cc2)cn1 [Example 751, N-{4-[1-(2,2-dimethylpropyl)-1H-pyrazol-4-yl]phenyl}-1-(pyridazin-3-yl)azetidine-3-carboxamide] | 2.71
CCC(C)(C)C(=O)N1CCC(c2ccc(NC(=O)C3CN(c4cccnn4)C3)cc2)CC1 [Example 325, N-{4-[1-(2,2-dimethylbutanoyl)piperidin-4-yl]phenyl}-1-(pyridazin-3-yl)azetidine-3-carboxamide] | 1.28

The remaining molecules from weak to strong by IC50, led by results:

IC50 [nM] | SMILES
130 | O=C(Nc1ccc(OC2CCN(C(=O)Cc3ccc(F)cc3)CC2)cc1)C1CN(c2ccnnc2)C1 [Example 276, N-[4-({1-[(4-fluorophenyl)acetyl]piperidin-4-yl}oxy)phenyl]-1-(pyridazin-4-yl)azetidine-3-carboxamide]
113 | O=C(Nc1ccc(S(=O)(=O)C2CCN(C(=O)c3ccc(F)cc3)CC2)cc1)C1CN(c2cccnn2)C1 [Example 588, N-(4-{[1-(4-fluorobenzoyl)piperidin-4-yl]sulfonyl}phenyl)-1-(pyridazin-3-yl)azetidine-3-carboxamide]
53.6 | CC(C)CCC(=O)N1CCC(S(=O)(=O)c2ccc(NC(=O)C3CN(c4cccnn4)C3)cc2)CC1 [Example 612, N-(4-{[1-(4-methylpentanoyl)piperidin-4-yl]sulfonyl}phenyl)-1-(pyridazin-3-yl)azetidine-3-carboxamide]
22.1 | O=C(N[C@H]1CCN(c2cccnn2)C1)c1ccc(C2CCN(C(=O)c3ccccc3)CC2)s1 [Example 764, 5-(1-benzoylpiperidin-4-yl)-N-[(3S)-1-(pyridazin-3-yl)pyrrolidin-3-yl]thiophene-2-carboxamide]
14.4 | O=C(Nc1ccc(C2CCN(C(=O)c3cc(F)cc(F)c3)CC2)cc1F)C1CN(c2cccnn2)C1 [Example 834, N-{4-[1-(3,5-difluorobenzoyl)piperidin-4-yl]-2-fluorophenyl}-1-(pyridazin-3-yl)azetidine-3-carboxamide]
12.1 | C=CCC(=O)N1CCC(c2ccc(NC(=O)[C@H]3CCN(c4cccnn4)C3)cc2)CC1 [Example 717, (3S)-N-{4-[1-(but-3-enoyl)piperidin-4-yl]phenyl}-1-(pyridazin-3-yl)pyrrolidine-3-carboxamide]
11.2 | O=C(Nc1ccc(C2CCN(C(=O)c3cc(F)cc(F)c3)CC2)cc1)[C@H]1CCN(c2cccnn2)C1 [Example 659, (3S)-N-{4-[1-(3,5-difluorobenzoyl)piperidin-4-yl]phenyl}-1-(pyridazin-3-yl)pyrrolidine-3-carboxamide]
8.86 | Cc1ccc(C(=O)N2CCC(Oc3ccc(NC(=O)C4CN(c5cccnn5)C4)cc3)CC2)s1 [Example 219, N-[4-({1-[(5-methylthiophen-2-yl)carbonyl]piperidin-4-yl}oxy)phenyl]-1-(pyridazin-3-yl)azetidine-3-carboxamide]
6.13 | O=C(Nc1ccc(C2CCN(C(=O)CC3C[C@@H]4CC[C@H]3C4)CC2)cc1)C1CN(c2cccnc2)C1 (stereo partly drawn) [Example 100, N-(4-{1-[(1S,4R)-bicyclo[2.2.1]hept-2-ylacetyl]piperidin-4-yl}phenyl)-1-(pyridin-3-yl)azetidine-3-carboxamide]
5.98 | CC(C)CC(=O)N1CCC(c2ccc(NC(=O)C3CN(c4ccnnc4)C3)cc2)CC1 [Example 556, N-{4-[1-(3-methylbutanoyl)piperidin-4-yl]phenyl}-1-(pyridazin-4-yl)azetidine-3-carboxamide]
0.91 | O=C(Nc1ccc(C2CCN(C(=O)c3ccsc3)CC2)cc1)C1CN(c2cccnn2)C1 [Example 425, 1-(pyridazin-3-yl)-N-{4-[1-(thiophen-3-ylcarbonyl)piperidin-4-yl]phenyl}azetidine-3-carboxamide]
